The source of these data is PubChem BioAssay (NCI).

Among the test systems are HOP-62 NSCLC; UO-31 renal; HCT-15 colon; SNB-19 CNS; A498 renal; SW-620 colon; HCC-2998 colon; NCI-H522 lung; SNB-78 CNS; M19-MEL melanoma; DLD-1 colon.
Assay in all cases: NCI-60 cell line screen, 48 h

Several values for one entry are separate records, joined by “and”; a condition that tells them apart may be missing. Equal values may be shown once.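 Values below derive from 48-hour exposures of cells grown in 96-well plates, with endpoints linearly interpolated between the two concentrations bracketing the appropriate inhibition level. Here, GI50 denotes the concentration required for 50% inhibition of growth. TGI denotes the concentration required for complete inhibition of growth.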

As to `CC[C@H]1OC(=O)[C@H](C)[C@@H](O[C@H]2C[C@@](C)(OC)[C@@H](O)[C@H](C)O2)[C@H](C)[C@@H](O[C@@H]2O[C@H](C)C[C@H](N(C)C)[C@H]2O)[C@](C)(OC)C/C(C)=C2/O[C@@]1(C)C=C2C`, the GI50 with HOP-62 NSCLC is 2.31 µM; with UO-31 renal, 1.37 µM; in the assay on HCT-15 colon it was 1.89 µM; in the assay on SNB-19 CNS it was 1.7 µM; in the assay with A498 renal, 1.75 µM; in the assay on SW-620 colon, 1.78 µM. The GI50 was 1.14 µM in the assay with HCC-2998 colon and 1.72 µM with NCI-H522 lung. Besides, the TGI turned out to be 4.74 µM in the assay with HOP-62 NSCLC; 2.65 µM in the assay on UO-31 renal; 3.6 µM with HCT-15 colon; 3.13 µM in the assay with SNB-19 CNS; 3.59 µM in the assay with A498 renal; 3.42 µM with SW-620 colon. Also, the TGI in the assay with HCC-2998 colon came out at 2.53 µM; in the assay with NCI-H522 lung, 3.63 µM.
Take `COc1ccc(/C=N/NS(=O)(=O)c2ccccc2)cc1`: the TGI with HOP-62 NSCLC, in the assay with SNB-78 CNS, in the assay with UO-31 renal, in the assay on HCT-15 colon, with A498 renal and in the assay on SW-620 colon was greater than 100 µM each time. Besides, the TGI with HCC-2998 colon, in the assay on M19-MEL melanoma and in the assay with DLD-1 colon was greater than 100 µM each time.
As to `COc1cc(OC)c2c(=O)c3cccc([N+](=O)[O-])c3n(C)c2c1`, the TGI in the assay with SNB-78 CNS, in the assay on UO-31 renal, in the assay with HCT-15 colon, with SNB-19 CNS, in the assay with SW-620 colon and in the assay with NCI-H522 lung was greater than 100 µM throughout.
For the molecule `OCCN(CO)CO`, the TGI in the assay with HOP-62 NSCLC, in the assay on UO-31 renal, in the assay on HCT-15 colon, with SNB-19 CNS, with A498 renal and in the assay with SW-620 colon was greater than 100 µM in each case. Besides, the TGI in the assay on HCC-2998 colon and with NCI-H522 lung was greater than 100 µM throughout.
Regarding `Cc1cc(NN=C(c2ccc(O)cc2)c2ccc(O)cc2)c([N+](=O)[O-])cc1[N+](=O)[O-]`, the GI50 with HOP-62 NSCLC is 4.11 µM; with UO-31 renal, 4.02 µM; in the assay on HCT-15 colon, 4.19 µM; with A498 renal, 9.29 µM; in the assay on SW-620 colon, 8.83 µM; with HCC-2998 colon, 8.24 µM. The GI50 in the assay on NCI-H522 lung is 1.08 µM. In addition, the TGI with HOP-62 NSCLC turned out to be 18.2 µM; in the assay with UO-31 renal it was 23.7 µM; in the assay with HCT-15 colon it was 53.6 µM; in the assay on SNB-19 CNS, 0.935 µM; with A498 renal, 23.9 µM; in the assay on SW-620 colon, 45.6 µM. In addition, the TGI turned out to be 28.7 µM with HCC-2998 colon and 11.4 µM with NCI-H522 lung.
On to `COCC(C(=O)OC1C/C=C/C=C/C(=O)OC(C(C)C(O)C(C)CCC(OC(=O)C(C)N(C)C)C(C)C(OC(C)=O)C(C)/C=C/N(C)C=O)C/C=C/C(OC)CC(C)C/C=C(\C)C(OC)CCC(C)C(O)C1C)N(C)C` (stereo not drawn), for which the GI50 with HOP-62 NSCLC is less than 0.0001 µM; with UO-31 renal it was 0.00104 µM; in the assay with HCT-15 colon, less than 0.0001 µM; in the assay on SNB-19 CNS, less than 0.0001 µM; with A498 renal, less than 0.0001 µM; in the assay on SW-620 colon, less than 0.0001 µM. Moreover, the GI50 in the assay on HCC-2998 colon and with NCI-H522 lung was less than 0.0001 µM each time. Further, the TGI in the assay with HOP-62 NSCLC is 0.0013 µM; in the assay with UO-31 renal it was 0.169 µM; in the assay on HCT-15 colon it was 0.00194 µM; with SNB-19 CNS, 0.111 µM; with A498 renal, less than 0.0001 µM; in the assay with SW-620 colon, greater than 1 µM. In addition, the TGI with HCC-2998 colon is 0.237 µM; in the assay on NCI-H522 lung, less than 0.0001 µM.
Turning to `CCCCC1(C(NC(=O)c2ccccc2Cl)c2ccncc2)C(=O)N(c2ccccc2)N(c2ccccc2)C1=O` (stereo not drawn), the TGI in the assay on HOP-62 NSCLC, in the assay with SNB-78 CNS, with UO-31 renal, with HCT-15 colon, with SNB-19 CNS and in the assay with SW-620 colon was greater than 100 µM throughout. In addition, the TGI in the assay with HCC-2998 colon, in the assay on NCI-H522 lung, in the assay on M19-MEL melanoma and with DLD-1 colon was greater than 100 µM in each case.
In the case of `COc1cc2ncnc(Oc3cccc(NC(=O)Nc4cc(C(C)(C)C(F)(F)F)on4)c3)c2cc1OC`, the GI50 is 2.45 µM and 2.53 µM in the assay with HOP-62 NSCLC; 0.552 µM and 0.788 µM in the assay with UO-31 renal; 2.16 µM and 2.67 µM in the assay with HCT-15 colon; 4.5 µM and 4.99 µM with SNB-19 CNS; 0.322 µM and 1.05 µM in the assay with A498 renal; 1.21 µM and 1.6 µM in the assay with SW-620 colon. The GI50 with HCC-2998 colon is 2.29 µM and 3.28 µM; in the assay with NCI-H522 lung, 0.37 µM and 0.407 µM. Also, the TGI was 16.8 µM and > 10 µM with HOP-62 NSCLC; 10.1 µM and > 7.68 µM in the assay on UO-31 renal; 12.5 µM and > 10 µM with HCT-15 colon; greater than 100 µM with SNB-19 CNS; 1.36 µM and 3.62 µM in the assay with A498 renal; 20.8 µM and > 10 µM in the assay with SW-620 colon. The TGI with HCC-2998 colon was 14.9 µM and > 10 µM; in the assay on NCI-H522 lung, 12.6 µM and > 7.06 µM.
Turning to `COc1cc2cc(Oc3cccc(NC(=O)Nc4cc(C(F)(F)F)cc(C(F)(F)F)c4)c3)c(C)nc2cc1OC`, the GI50 is 1.35 µM with HOP-62 NSCLC; 0.266 µM in the assay on UO-31 renal; 0.668 µM in the assay on HCT-15 colon; 0.654 µM with SNB-19 CNS; 1.6 µM in the assay on A498 renal; 1.94 µM in the assay on SW-620 colon. The GI50 is 1.53 µM in the assay on HCC-2998 colon and 1.25 µM in the assay on NCI-H522 lung. For the same molecule, the TGI in the assay with HOP-62 NSCLC came to 2.88 µM; with UO-31 renal, 1.65 µM; with HCT-15 colon it was 2.04 µM; in the assay with SNB-19 CNS, 2.16 µM; in the assay on A498 renal, 4.29 µM; with SW-620 colon it was 5.71 µM. The results for the TGI in the assay with HCC-2998 colon and in the assay with NCI-H522 lung were 3.15 µM and 2.95 µM, respectively.
`COc1ccc2c(c1)C(=O)c1c-2c(OCCN(C)C)nc2cc(OC)c(OC)cc12`: the GI50 was 1.32 µM in the assay on HOP-62 NSCLC; 0.658 µM in the assay with UO-31 renal; 9.67 µM with HCT-15 colon; 2.28 µM with SNB-19 CNS; 13.2 µM in the assay on A498 renal; 0.476 µM with SW-620 colon. The values for the GI50 in the assay with HCC-2998 colon and in the assay on NCI-H522 lung were 8.85 µM and 10.6 µM, respectively. In addition, the TGI is 32 µM in the assay with HOP-62 NSCLC; 9.37 µM with UO-31 renal; 23.6 µM in the assay on HCT-15 colon; 31.5 µM with SNB-19 CNS; 99.1 µM in the assay on A498 renal; 16.9 µM in the assay on SW-620 colon. Further, the TGI was 49.9 µM with HCC-2998 colon and greater than 100 µM in the assay on NCI-H522 lung.
